Reference: patent publication US12336994B2, “Alpha polyglutamated tetrahydrofolates and uses thereof” (L.E.A.F. HOLDINGS GROUP LLC, priority 2018, dated 2025)

Legend:
[1] = system: NCI H2342 non-small cell lung cancer (NSCLC), adenocarcinoma subtype; assay: CellTiter-Glo (CTG) luminescent cell viability assay, NCI H2342; format: cell-based, Human; conditions: NCI H2342, 48 hours of treatment
Method: (§1) Luciferase luminescence were recorded for each well.

HT-29 (colon cancer) = assay: CellTiter-Glo (CTG) luminescent cell viability assay, HT-29; format: cell-based, Human; conditions: HT-29, 48 hours
Method: as §1

[2] = system: CCD841 colon epithelium cells; assay: Toxicity on CCD841 non-cancerous colon epithelial cells; format: cell-based; conditions: all concentrations tested (16 nM, 32 nM, 64 nM, 128 nM), 48 hours
Source text: (§2) Methodologies used for cell line AML12 (non-cancerous liver cells) and CCD841 (non-cancerous colon epithelial cells) are similar to the methods used for cancer cells.

AML12 liver cells = assay: Toxicity on AML12 non-cancerous liver cells; format: cell-based; conditions: all doses studied (16 nM to 128 nM), 48 hours
Source text: as §2

Row | SMILES | potency (cytotoxic activity, dose response) compared among test articles and pemetrexed ([1]; listed as free L gamma G6) | potency (cytotoxic activity, dose response) compared among test articles and pemetrexed ([1]; listed as free pemetrexed gG6) | potency (cytotoxic activity, dose response) compared among test articles and pemetrexed (HT-29 (colon cancer); listed as free L gamma G6) | potency (cytotoxic activity, dose response) compared among test articles and pemetrexed (HT-29 (colon cancer); listed as free pemetrexed gG6) | decrease in the number of CCD841 colon epithelium cells [2] | reduction in the AML12 liver cell counts (AML12 liver cells)
1 | Nc1nc2[nH]cc(CCc3ccc(C(=O)N[C@@H](CCC(=O)N[C@@H](CCC(=O)N[C@@H](CCC(=O)N[C@@H](CCC(=O)N[C@@H](CCC(=O)N[C@@H](CCC(=O)O)C(=O)O)C(=O)O)C(=O)O)C(=O)O)C(=O)O)C(=O)O)cc3)c2c(=O)[nH]1 [gG6, free pemetrexed L-gamma hexaglutamate] | lowest potency | least potent | lowest potency | least potent |  | 
2 | Nc1nc2[nH]cc(CCc3ccc(C(=O)N[C@@H](CCC(=O)O)C(=O)O)cc3)c2c(=O)[nH]1 [pemetrexed] |  |  |  |  | ≥ 50% | approximately 40%
